Results reported in PMC4220732 (Frontiers in Cellular and Infection Microbiology, 2014).

Target: T1, PefR (GAS PefR) (Streptococcus pyogenes, UniProt Q9A1K6)
T1 construct: gene SPy_0228; full ORF, N-terminal 6xHis tag (pRham N-His, pAJS11), tag cleavage not mentioned; expressed in E. coli (E. cloni 10G); as purified carries some heme
Assay: UV-visible absorbance titration at […] nm, linear fit
Format: binding

T1 sequence (Q9A1K6 entry or part of it): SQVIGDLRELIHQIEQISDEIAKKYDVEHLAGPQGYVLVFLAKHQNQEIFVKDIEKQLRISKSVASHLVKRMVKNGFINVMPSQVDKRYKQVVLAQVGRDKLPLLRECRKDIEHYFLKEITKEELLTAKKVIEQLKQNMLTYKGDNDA

C=CC1=C(C)c2cc3[nH]c(cc4nc(cc5[nH]c(cc1n2)c(C)c5CCC(=O)O)C(CCC(=O)O)=C4C)c(C)c3C=C [PPIX]
Kd: 9 µM
